Data on one substance can be found in patent publication US5424396A, “Antimicrobial peptide and antimicrobial agent” (Morinaga Milk Industry Co., Ltd., priority 1991, dated 1995).

The test system of the experiment is Escherichia coli. Nature of the experiment: Antimicrobial activity test: rate of inhibition of E. coli proliferation (turbidity). As to conditions: 16 hours at 37° C. The format is cell-based. The protocol: One platinum loop was collected from a stock slant of Escherichia coli, streaked on a standard agar medium (manufactured by Nissui Pharmaceutical Co.) and incubated under aerobic conditions for 16 hours at 37° C., the colonies which grew on the surface of the standard agar medium were collected using a platinum loop, suspended in sterilized physiological saline solution, the turbidity was measured using a spectrophotometer (manufactured by Hitachi Manufacturing Co.) and adjusted to 0.1 (O.D.; 660 nm) and a pre-incubation solution was prepared.
Bactocasitone (manufactured by Difco Laboratory Co.) was dissolved at a concentration of 1% in purified water, the pH was adjusted to 7.0 with 1M sodium hydroxide, the solution was sterilized at 115° C. for 15 minutes and a basal medium (liquid medium) was prepared. […]
The percentages of the rate of inhibition of proliferation are not in weight (same hereinafter).

In the case of Trp-Gln-Trp-Arg (WQWR) [Sample No. 7], the “inhibitory rate (rate of inhibition of proliferation)” value runs as follows: (added quantity 0.5 μM) 0%; (added quantity 1 μM) 21%; (added quantity 2 μM) 68%; (added quantity 5 μM) 83%; (added quantity 10 μM) 95%; (added quantity 20 μM) 100%. For the same substance, the “inhibitory rate (rate of inhibition of proliferation)” value by setting is: (added quantity 60 μM) 100%; (added quantity 100 μM) 100%; (added quantity 200 μM) 100%.
